Consider 1 compound from patent US20240408082A1, “METHODS FOR TREATING CANCERS AND TUMORS” (BEYONDSPRING PHARMACEUTICALS, INC., priority 2021, published 2024).

Experiment [1] deals with SXFS 627. Briefly: 3D clonogenic assay, Example 1, SXFS 627. It is filed as cell-based. The following applies: model SXFS 627. As to the method: (§1) In the present study, plinabulin was characterized for its ability to inhibit anchorage independent growth and ex vivo colony formation of tumor cells in semi-solid medium. The compound was investigated in 87 out of 93 originally planned tumor xenografts representing all major cancer types using a 3D clonogenic assay in a 96-well format with colony count based on image analysis as read-out. By using this assay, the investigational compound was assessed for the ability to inhibit anchorage independent growth and ex vivo colony formation of tumor cells in semi-solid medium.
(§2) A master stock solution of plinabulin was prepared by dissolving the compound in DMSO at a concentration of 9.9 mM. Working stock solutions were prepared by diluting the master stock solution with DMSO to a concentration of 0.99 mM (330-fold the highest test concentration). Small aliquots of the master and working stock were stored at −20° C. […]
(§3) Plinabulin was investigated in 87 PDX models representing a number of cancer types. […] The percentage of viable cells was determined in a Neubauer-hemocytometer using trypan blue exclusion. […]
(§4) The clonogenic assay was carried out in a 96 well plate format using ultra low attachment plates. […] Cultures were incubated at 37° C. and 7.5% CO2 in a humidified atmosphere 13 days in total and monitored closely for colony growth using an inverted microscope. […]

The subject of experiment [2] is melanoma models. Briefly: 3D clonogenic assay, Example 1, melanoma models. It is filed as cell-based. The following applies: n=19 models. The procedure: as §1, §2, §3, §4

On to `CC(C)(C)c1[nH]cnc1/C=c1\[nH]c(=O)/c(=C/c2ccccc2)[nH]c1=O` [plinabulin, (3Z,6Z)-3-Benzylidene-6-{[5-(2-methyl-2-propanyl)-1H-imidazol-4-yl]methylene}-2,5-piperazinedione], for which, in experiment [1], the “absolute IC70” value turned out to be 3 nM. Moreover, the “geometric mean absolute IC70” value in experiment [2] was determined as 1105 nM.
